Target: T1, MST4 (Homo sapiens, UniProt Q9P289)
T1 construct: purchased Thermo Fisher Scientific (Life Technologies) SelectScreen
Experiment: SelectScreen Z'LYTE
Assay type: biochemical
Summary of the method: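 NU5455 was profiled across the SelectScreen Broad panel of kinase activity and binding assays. Z'LYTE reactions such as CSF1R ran at apparent Km ATP, while the Adapta CAMK1 assay used ATP listed as 10. Values are given as percent.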

T1 sequence (Q9P289 whole entry): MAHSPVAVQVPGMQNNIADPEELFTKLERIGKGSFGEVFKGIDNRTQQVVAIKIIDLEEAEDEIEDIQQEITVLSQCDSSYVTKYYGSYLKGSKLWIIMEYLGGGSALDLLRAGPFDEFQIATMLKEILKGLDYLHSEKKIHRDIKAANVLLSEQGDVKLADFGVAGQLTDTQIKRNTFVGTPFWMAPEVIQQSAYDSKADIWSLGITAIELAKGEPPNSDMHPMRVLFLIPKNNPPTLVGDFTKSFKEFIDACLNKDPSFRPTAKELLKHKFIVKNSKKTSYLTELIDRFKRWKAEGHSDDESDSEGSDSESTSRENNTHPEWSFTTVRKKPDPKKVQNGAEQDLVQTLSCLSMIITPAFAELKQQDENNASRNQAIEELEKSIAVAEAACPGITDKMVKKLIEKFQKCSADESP

## CN(C(=O)CN1CCOCC1)c1ccc2sc3c(-c4cccc5c(=O)cc(N6CC7CCC(C6)O7)oc45)cccc3c2c1 [NU5455]
  inhibition at 1 µM: 6.9%
